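Method: 48-hour compound exposure of cells in 96-well plates, five concentrations, linear interpolation of endpoints. GI50 = concentration required for 50% inhibition of growth. TGI denotes the concentration required for complete inhibition of growth.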
Columns and labels:
Test in all cases: growth of human tumour cells (NCI), 48 h
786-0 renal = test system: 786-0 renal
A549 NSCLC = test system: A549 NSCLC
ACHN renal = test system: ACHN renal
BT-549 breast = test system: BT-549 breast
CAKI-1 renal = test system: CAKI-1 renal
CCRF-CEM leukemia = test system: CCRF-CEM leukemia
COLO 205 colon = test system: COLO 205 colon
DU-145 prostate = test system: DU-145 prostate
EKVX NSCLC = test system: EKVX NSCLC
HCC-2998 colon = test system: HCC-2998 colon
HCT-116 colon = test system: HCT-116 colon
HCT-15 colon = test system: HCT-15 colon
HL-60(TB) leukemia = test system: HL-60(TB) leukemia
HOP-62 NSCLC = test system: HOP-62 NSCLC
HOP-92 NSCLC = test system: HOP-92 NSCLC
HS 578T breast = test system: HS 578T breast
HT29 colon = test system: HT29 colon
IGROV1 ovarian = test system: IGROV1 ovarian
K-562 leukemia = test system: K-562 leukemia
KM12 colon = test system: KM12 colon
LOX IMVI melanoma = test system: LOX IMVI melanoma
MCF7 breast = test system: MCF7 breast
MDA-MB-231 breast = test system: MDA-MB-231 breast
MDA-MB-435 = test system: MDA-MB-435
MOLT-4 leukemia = test system: MOLT-4 leukemia
NCI-H226 lung = test system: NCI-H226 lung
NCI-H23 lung = test system: NCI-H23 lung
NCI-H460 lung = test system: NCI-H460 lung
NCI-H522 lung = test system: NCI-H522 lung
NCI/ADR-RES ovarian = test system: NCI/ADR-RES ovarian
OVCAR-3 ovarian = test system: OVCAR-3 ovarian
OVCAR-4 ovarian = test system: OVCAR-4 ovarian
OVCAR-5 ovarian = test system: OVCAR-5 ovarian
OVCAR-8 ovarian = test system: OVCAR-8 ovarian
PC-3 prostate = test system: PC-3 prostate
RPMI-8226 leukemia = test system: RPMI-8226 leukemia
RXF 393 renal = test system: RXF 393 renal
SF-268 CNS = test system: SF-268 CNS
SF-295 CNS = test system: SF-295 CNS
SF-539 CNS = test system: SF-539 CNS
SK-MEL-2 melanoma = test system: SK-MEL-2 melanoma
SK-MEL-28 melanoma = test system: SK-MEL-28 melanoma
SK-MEL-5 melanoma = test system: SK-MEL-5 melanoma
SK-OV-3 ovarian = test system: SK-OV-3 ovarian
SN12C renal = test system: SN12C renal
SNB-19 CNS = test system: SNB-19 CNS
SNB-75 CNS = test system: SNB-75 CNS
SW-620 colon = test system: SW-620 colon
T-47D breast = test system: T-47D breast
TK-10 renal = test system: TK-10 renal
U251 CNS = test system: U251 CNS
UACC-257 melanoma = test system: UACC-257 melanoma
UACC-62 melanoma = test system: UACC-62 melanoma
UO-31 renal = test system: UO-31 renal

Clc1ccc(OCc2nn3c(CCCCc4nnc5sc(COc6ccc(Cl)cc6Cl)nn45)nnc3s2)c(Cl)c1
GI50 (786-0 renal): 65.4 µM | TGI (786-0 renal): > 100 µM | GI50 (A549 NSCLC): 82.6 µM | TGI (A549 NSCLC): > 100 µM | GI50 (ACHN renal): 93.6 µM | TGI (ACHN renal): > 100 µM | GI50 (BT-549 breast): 54.2 µM | TGI (BT-549 breast): > 100 µM | GI50 (CAKI-1 renal): 40.1 µM | TGI (CAKI-1 renal): > 100 µM | GI50 (CCRF-CEM leukemia): 51 µM | TGI (CCRF-CEM leukemia): > 100 µM | GI50 (COLO 205 colon): 52 µM | TGI (COLO 205 colon): > 100 µM | GI50 (DU-145 prostate): 71.9 µM | TGI (DU-145 prostate): > 100 µM | GI50 (EKVX NSCLC): 57.5 µM | TGI (EKVX NSCLC): > 100 µM | GI50 (HCC-2998 colon): 35.3 µM | TGI (HCC-2998 colon): > 100 µM | GI50 (HCT-116 colon): 18.1 µM | TGI (HCT-116 colon): 63.1 µM | GI50 (HCT-15 colon): > 100 µM | TGI (HCT-15 colon): > 100 µM | GI50 (HL-60(TB) leukemia): > 100 µM | TGI (HL-60(TB) leukemia): > 100 µM | GI50 (HOP-62 NSCLC): 60.1 µM | TGI (HOP-62 NSCLC): > 100 µM | GI50 (HOP-92 NSCLC): 50.3 µM | TGI (HOP-92 NSCLC): > 100 µM | GI50 (HS 578T breast): 36.7 µM | TGI (HS 578T breast): > 100 µM | GI50 (HT29 colon): > 100 µM | TGI (HT29 colon): > 100 µM | GI50 (IGROV1 ovarian): 83 µM | TGI (IGROV1 ovarian): > 100 µM | GI50 (K-562 leukemia): 22.7 µM | TGI (K-562 leukemia): 61 µM | GI50 (KM12 colon): 31.9 µM | TGI (KM12 colon): > 100 µM | GI50 (LOX IMVI melanoma): 67.1 µM | TGI (LOX IMVI melanoma): > 100 µM | GI50 (MCF7 breast): 48.1 µM | TGI (MCF7 breast): > 100 µM | GI50 (MDA-MB-231 breast): 44.3 µM | TGI (MDA-MB-231 breast): > 100 µM | GI50 (MDA-MB-435): 49.6 µM | TGI (MDA-MB-435): > 100 µM | GI50 (MOLT-4 leukemia): 18.4 µM | TGI (MOLT-4 leukemia): 48.5 µM | GI50 (NCI-H226 lung): 38 µM | TGI (NCI-H226 lung): > 100 µM | GI50 (NCI-H23 lung): 37.3 µM | TGI (NCI-H23 lung): > 100 µM | GI50 (NCI-H460 lung): 71.9 µM | TGI (NCI-H460 lung): > 100 µM | GI50 (NCI-H522 lung): 45.2 µM | TGI (NCI-H522 lung): > 100 µM | GI50 (NCI/ADR-RES ovarian): 35.8 µM | TGI (NCI/ADR-RES ovarian): > 100 µM | GI50 (OVCAR-3 ovarian): 30.4 µM | TGI (OVCAR-3 ovarian): 74.4 µM | GI50 (OVCAR-4 ovarian): 50.3 µM | TGI (OVCAR-4 ovarian): > 100 µM | GI50 (OVCAR-5 ovarian): > 100 µM | TGI (OVCAR-5 ovarian): > 100 µM | GI50 (OVCAR-8 ovarian): 46.2 µM | TGI (OVCAR-8 ovarian): > 100 µM | GI50 (PC-3 prostate): 47.8 µM | TGI (PC-3 prostate): > 100 µM | GI50 (RPMI-8226 leukemia): 25.4 µM | TGI (RPMI-8226 leukemia): 59.6 µM | GI50 (RXF 393 renal): 83.9 µM | TGI (RXF 393 renal): > 100 µM | GI50 (SF-268 CNS): 73.1 µM | TGI (SF-268 CNS): > 100 µM | GI50 (SF-295 CNS): 40.6 µM | TGI (SF-295 CNS): > 100 µM | GI50 (SF-539 CNS): 55.8 µM | TGI (SF-539 CNS): > 100 µM | GI50 (SK-MEL-2 melanoma): > 100 µM | TGI (SK-MEL-2 melanoma): > 100 µM | GI50 (SK-MEL-28 melanoma): > 100 µM | TGI (SK-MEL-28 melanoma): > 100 µM | GI50 (SK-MEL-5 melanoma): 42 µM | TGI (SK-MEL-5 melanoma): > 100 µM | GI50 (SK-OV-3 ovarian): > 100 µM | TGI (SK-OV-3 ovarian): > 100 µM | GI50 (SN12C renal): 94.3 µM | TGI (SN12C renal): > 100 µM | GI50 (SNB-19 CNS): 76.8 µM | TGI (SNB-19 CNS): > 100 µM | GI50 (SNB-75 CNS): 33.3 µM | TGI (SNB-75 CNS): > 100 µM | GI50 (SW-620 colon): > 100 µM | TGI (SW-620 colon): > 100 µM | GI50 (T-47D breast): 43.9 µM | TGI (T-47D breast): > 100 µM | GI50 (TK-10 renal): 32.6 µM | TGI (TK-10 renal): 92 µM | GI50 (U251 CNS): 29 µM | TGI (U251 CNS): 89.7 µM | GI50 (UACC-257 melanoma): 72.7 µM | TGI (UACC-257 melanoma): > 100 µM | GI50 (UACC-62 melanoma): 69.4 µM | TGI (UACC-62 melanoma): > 100 µM | GI50 (UO-31 renal): > 100 µM | TGI (UO-31 renal): > 100 µM

From PubChem BioAssay (NCI)
